We go through eleven compounds from ChEMBL document CHEMBL1201862, “PubChem BioAssay data set” (2004).

Structures are written as SMILES.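 In this assay, cells in 96-well plates receive the compound at five concentrations for 48 hours. Endpoints are linearly interpolated between the surrounding concentrations. GI50 is the concentration that inhibits growth by half.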 Active and inactive are the calls of the source. Rule as the data show it: active = GI50 up to about 1.1 µM and inactive = higher.

Some test systems named below: A498; A549; ACHN; CAKI-1; DU-145; HCT-116; HL-60; IGROV-1; OVCAR-3; OVCAR-4; PC-3; SF-268; SF-295; SK-OV-3; SNB-19; SNB-75; SR; T47D; UACC-257; MCF7.
Experiment in all cases: DTP human tumour cell line panel, 48 h

`Cc1noc(NC(=O)Nc2ccccc2F)c1C#N`: the GI50 (as a rule, the concentration that inhibits growth by half) with A498 is > 35 µM (inactive); in the test with A549, 26.1 µM (inactive); with ACHN, 22.2 µM (inactive); in the test on CAKI-1 it was > 100 µM (inactive); with DU-145, 49.8 µM (inactive); with HCT-116 it was 14.4 µM (inactive). In addition, the GI50 was 84.5 µM (inactive) with HL-60; > 91.6 µM (inactive) in the test with IGROV-1; 64.3 µM (inactive) in the test with OVCAR-3; 69.8 µM (inactive) with OVCAR-4; > 21.5 µM (inactive) with PC-3; 12.4 µM (inactive) in the test with SF-268. The GI50 with SF-295 was 41.5 µM (inactive); with SK-OV-3, > 100 µM (inactive); with SNB-19, > 35 µM (inactive); with SNB-75, 97.1 µM (inactive); in the test on SR it was 21.4 µM (inactive); in the test with T47D, 18.3 µM (inactive). Besides, the GI50 with UACC-257 was 30.9 µM (inactive).

Take `COc1ccccc1C1SCC(=O)N1c1ccc(-c2ccc(-n3c(-c4ccccc4)nc4ccccc4c3=O)cc2)cc1` (stereo unspecified): the GI50 in the test with A498, in the test on A549, in the test with ACHN, in the test with CAKI-1, in the test with DU-145 and with HCT-116 was > 100 µM (inactive) in each case. The GI50 in the test on HL-60 was > 100 µM (inactive); in the test with IGROV-1, > 100 µM (inactive); with MCF7, > 100 µM (inactive); with OVCAR-3, > 100 µM (inactive); with OVCAR-4 it was > 10 µM (inactive); in the test with PC-3, > 100 µM (inactive). Also, the GI50 in the test with SF-268 was > 100 µM (inactive); in the test with SF-295 it was > 100 µM (inactive); in the test on SK-OV-3 it was > 100 µM (inactive); with SNB-19 it was > 100 µM (inactive); in the test on SNB-75, > 100 µM (inactive); in the test on T47D, 91 µM (inactive). Further, in the test on UACC-257, the GI50 is > 100 µM (inactive).

Turning to `COc1ccc(/N=C/N(C)C)c(C)c1`, the GI50 in the test on A498 is 18.1 µM (inactive); in the test with A549, 7.23 µM (inactive); with ACHN it was 18.7 µM (inactive); with CAKI-1 it was 35.6 µM (inactive); in the test on DU-145, 4.16 µM (inactive); in the test on HCT-116 it was 4.15 µM (inactive). Also, the GI50 in the test with HL-60 is 0.13 µM (active); with IGROV-1, 9.48 µM (inactive); in the test on MCF7 it was 8.26 µM (inactive); in the test on OVCAR-3, 2.36 µM (inactive); in the test with OVCAR-4, 9.42 µM (inactive); in the test with PC-3 it was 3.17 µM (inactive). Further, the GI50 was 19 µM (inactive) in the test on SF-268; 11 µM (inactive) in the test with SF-295; 18.7 µM (inactive) with SK-OV-3; 21.6 µM (inactive) in the test on SNB-19; 16.7 µM (inactive) in the test on SNB-75; 9.55 µM (inactive) with T47D. For the same compound, the GI50 with UACC-257 was 2.42 µM (inactive).

For the compound `CCOC(=O)C(CCSC)(CCSC)C(=O)OCC`, the GI50 with A498, with A549, in the test on ACHN, in the test on CAKI-1, with DU-145 and in the test on HCT-116 was > 100 µM (inactive) throughout. Further, the GI50 with IGROV-1, in the test with MCF7, in the test on OVCAR-3, in the test on OVCAR-4, with PC-3 and in the test on SF-268 was > 100 µM (inactive) in each case. In addition, the GI50 with SF-295 was > 100 µM (inactive); in the test on SK-OV-3, 27.7 µM (inactive); in the test with SNB-19, > 100 µM (inactive); in the test with SNB-75, > 100 µM (inactive); in the test with T47D, > 100 µM (inactive); in the test with UACC-257 it was > 100 µM (inactive).

On to `Clc1ccc2nc3[nH]nc(Cl)c3nc2c1`, for which the GI50 with A498 is 46.2 µM (inactive); in the test with A549 it was 36.8 µM (inactive); in the test with ACHN, 52.8 µM (inactive); in the test on CAKI-1, 49.1 µM (inactive); in the test on DU-145, 50.7 µM (inactive); with HCT-116, 42.9 µM (inactive). Besides, the GI50 in the test on MCF7 is 59.8 µM (inactive); with OVCAR-3, 66.8 µM (inactive); in the test with OVCAR-4, 63.2 µM (inactive); with PC-3, 34.6 µM (inactive); with SF-268 it was 47.9 µM (inactive); in the test with SF-295 it was 72.6 µM (inactive). The GI50 is 41.9 µM (inactive) with SK-OV-3; 45.6 µM (inactive) in the test with SNB-19; 48.6 µM (inactive) with SNB-75; 44.1 µM (inactive) in the test on T47D; 66.8 µM (inactive) with UACC-257.

`CC(=O)NC1C(OCC(=O)NCCNc2ccc([N+](=O)[O-])c3[nH]c4ccccc4c(=O)c23)C(O)C(CO)OC1(C)OCc1ccccc1` (stereo unspecified): the GI50 with A498, in the test with A549, in the test on ACHN, with CAKI-1, in the test with DU-145 and in the test on HCT-116 was > 100 µM (inactive) each time. Moreover, the GI50 in the test on IGROV-1, in the test with MCF7, in the test on OVCAR-3, in the test on OVCAR-4, in the test with PC-3 and in the test with SF-268 was > 100 µM (inactive) each time. In addition, the GI50 in the test with SF-295, in the test on SK-OV-3, in the test with SNB-19, in the test on SNB-75, in the test with T47D and in the test with UACC-257 was > 100 µM (inactive) throughout.

Turning to `O=[N+]([O-])c1ccc2c(c1)c(OCc1ccccc1)nn2Cc1ccccc1`, the GI50 with A498 is 33 µM (inactive); with A549 it was 64.1 µM (inactive); in the test on ACHN it was 43.8 µM (inactive); with CAKI-1, > 100 µM (inactive); in the test with DU-145 it was > 100 µM (inactive); in the test on HL-60 it was > 100 µM (inactive). The GI50 is > 100 µM (inactive) in the test with IGROV-1; > 100 µM (inactive) in the test on MCF7; > 100 µM (inactive) with OVCAR-3; 63.1 µM (inactive) in the test on PC-3; > 100 µM (inactive) in the test on SF-268; 51.2 µM (inactive) in the test with SF-295. In addition, the GI50 with SK-OV-3, with SNB-19, with T47D and in the test with UACC-257 was > 100 µM (inactive) each time.

Consider `Cc1c(/C=N\NC(=S)N2CCN(C(=S)N/N=C\c3c(C)n(C)n(-c4ccccc4)c3=O)CC2)c(=O)n(-c2ccccc2)n1C`, for which the GI50 is 65.3 µM (inactive) in the test with A498; 47.9 µM (inactive) in the test on A549; 21.2 µM (inactive) with ACHN; 82.6 µM (inactive) in the test with CAKI-1; 56 µM (inactive) in the test with DU-145; 49.5 µM (inactive) in the test on HCT-116. Moreover, the GI50 is 51.9 µM (inactive) in the test with OVCAR-3; > 100 µM (inactive) in the test with OVCAR-4; 32.9 µM (inactive) in the test with PC-3; > 100 µM (inactive) in the test on SF-268; 28.4 µM (inactive) in the test on SF-295; > 100 µM (inactive) in the test on SK-OV-3. Also, the GI50 with SNB-19 was 47.5 µM (inactive); in the test with SNB-75, 21.8 µM (inactive); with SR it was 47.9 µM (inactive); in the test with T47D, 36.1 µM (inactive); in the test on UACC-257, 26.8 µM (inactive).

As for `CC1=CC(C)C(O)C(C)/C=C\C(O)C/C=C(/C)C(=O)CC(O)C(C)\C=C/C=C\C=C/C(=O)NC2=C(O)C(=O)c3c(cc(C)c(O)c3C1=O)C2=O` (stereo unspecified), the GI50 is > 100 µM (inactive) in the test with A549; > 100 µM (inactive) in the test with ACHN; > 100 µM (inactive) in the test on CAKI-1; 76.6 µM (inactive) with DU-145; 58.1 µM (inactive) in the test on HCT-116; > 100 µM (inactive) with HL-60. Also, the GI50 in the test on IGROV-1 was 74.8 µM (inactive); in the test on MCF7, 25.8 µM (inactive); in the test on OVCAR-3 it was > 100 µM (inactive); in the test on OVCAR-4, > 100 µM (inactive); in the test with PC-3 it was > 100 µM (inactive); with SF-268, 94.4 µM (inactive). Also, the GI50 in the test with SF-295 is > 100 µM (inactive); in the test on SNB-19, > 100 µM (inactive); in the test on SNB-75, 25 µM (inactive); with SR, 31.9 µM (inactive); with T47D it was > 100 µM (inactive); in the test with UACC-257, > 100 µM (inactive).

Regarding `O=C1CSCC(=O)Nc2ccccc2N1`, the GI50 in the test with A498, in the test with A549, in the test on ACHN, with CAKI-1, in the test with DU-145 and with HCT-116 was > 100 µM (inactive) in each case. For the same compound, the GI50 with HL-60, with IGROV-1, with OVCAR-3, with OVCAR-4, with PC-3 and in the test with SF-268 was > 100 µM (inactive) each time. Besides, the GI50 in the test with SF-295, in the test on SK-OV-3, in the test on SNB-19, with SR, in the test with T47D and in the test with UACC-257 was > 100 µM (inactive) in each case.

With `O=[N+]([O-])c1cc(/N=N/c2c(O)ccc3cc(S(=O)(=O)O)ccc23)c(O)c([N+](=O)[O-])c1`, the GI50 is > 100 µM (inactive) in the test on A549; > 100 µM (inactive) in the test with ACHN; > 100 µM (inactive) in the test with CAKI-1; > 100 µM (inactive) with DU-145; > 100 µM (inactive) in the test with HCT-116; 11.1 µM (inactive) in the test on HL-60. The GI50 in the test with IGROV-1 was > 100 µM (inactive); in the test on OVCAR-3, 63.1 µM (inactive); in the test on OVCAR-4, > 100 µM (inactive); in the test with PC-3 it was 90.6 µM (inactive); with SF-268, > 100 µM (inactive); with SF-295 it was 44.9 µM (inactive). For the same compound, the GI50 in the test on SK-OV-3, in the test with SNB-19, with SNB-75, in the test on T47D and in the test on UACC-257 was > 100 µM (inactive) in each case.
